Entries after “also recorded” stand apart in the source; their conditions may differ.
Key:
[1] = T1-weighted relaxivity (r1) on 3 T clinical MRI scanner; format: physicochemical; settings: 50 mM HEPES pH 7.00, 3 T
[2] = Stability in aerobic solution / to pH; format: physicochemical
Method: (§1) Over this time, collected UV/vis spectra (FIGS. 2 & 3) display changes in the region between 200 nm and 300 nm which are consistent with the oxidation of the quinol to a para-quinone. Past 24 h, the solution begins to turn brown, consistent with oxidation of the manganese to Mn(III) and/or Mn(IV). For the spectrophotometric analysis, the Fe(ClO4)2 solution was added to a MeCN solution containing 0.10 mM [Mn(Hptp1)(MeCN)]^2+; the mixture was scanned at 0 min (dashed red), 30 min (dashed pink), and 60 min (dashed blue). […] At 15 h, approximately 11% of the Mn(II) has been displaced by Fe(II) as indicated by data in FIG. 3.
(§2) The stability of 3 to air and adventitious metal ions was assessed primarily by UV/vis spectroscopy. […] Complex 3, however, is susceptible to metal exchange. When equimolar amounts of 3 and Fe(ClO4)2 are mixed in MeCN, 80% of the Mn(II) is replaced by Fe(II) by 3 h.

[3] = Metal exchange with Fe(ClO4)2 followed by UV/vis; format: physicochemical; settings: 0.10 mM complex + 0.10 mM Fe(ClO4)2, MeCN
Method: as §1, §2

[4] = DPPH free radical scavenging assay; format: biochemical; settings: Example 1
Method: An alternative assessment of the Mn(II) complexes' anti-oxidant properties relied upon the DPPH assay. Aqueous solutions of either 1, 2, or ascorbic acid were added to a solution of 0.10 mM DPPH in MeOH, such that the final reaction volume was 0.2 mL. Samples were incubated in the dark for 30 min at room temperature. Spectrophotometric measurements were subsequently performed at 517 nm using a Molecular Devices Spectramax Plus. This wavelength corresponds to the λmax of the reduced product. Experiments were performed in triplicate and repeated twice.
The anti-oxidant properties of 1 and 2 were also assessed using the DPPH assay (DPPH=2,2-diphenyl-1-picrylhydrazyl radical hydrate), which evaluates the ability of a compound to donate hydrogen atoms to DPPH to yield the corresponding hydrazine. The anti-oxidants were added to DPPH and incubated in the dark for 30 min at room temperature. Spectroscopic measurements were performed at 517 nm. The data were normalized to the absorbance in the presence of vehicle. All experiments were performed in triplicate and repeated twice.
Complex 3 is also a competent […] as assessed by the DPPH assay (FIG. 33), which tests the abilities of compounds to donate hydrogen atoms to 2,2-diphenyl-1-picrylhydrazyl radical hydrate. […] The data were normalized to the absorbance in the presence of vehicle. […] The hydrazine product is monitored by UV/vis.

[5] = Potentiometric pH titrations, Hyperquad model
Description: The speciation in water was more rigorously probed with potentiometric pH titrations. […] The quinolic protons likely deprotonate at higher pH values (pKa˜10), but we were unable to obtain the high pH data necessary to confirm this.
The data were fit to a model containing the protonated forms of the free ligand and four Mn(II) complexes with the ligand in various protonation states: [Mn(H2qtp2)], [Mn(H3qtp2)]^+, [Mn(H4qtp2)]^2+, and [Mn(H4qtp2)]^3+ (Scheme 4).

Q: With `CC#N.O=S(=O)([O-])C(F)(F)F.O=S(=O)([O-])C(F)(F)F.[Mn+2].[O-]c1ccc(O)cc1CN(CCN(Cc1ccccn1)Cc1ccccn1)Cc1ccccn1` [Complex 1, Acetonitrilo(N-(2,5-dihydroxy-benzyl)-N,N′,N′-tris(2-pyridinylmethyl)-1,2-ethanediamine)manganese(II) triflate] as the molecule, how does the “r1 after addition of KO2” value ([1]; 2 mM KO2) read?
A: 5520 M⁻¹ s⁻¹

Q: And the “r1 after addition of NaClO” value ([1]; 10 mM NaClO)?
A: 4.82 mM⁻¹ s⁻¹

Q: And the “r1 of fully oxidized sensor” value ([1]; oxidized by DDQ)?
A: 5.56 mM⁻¹ s⁻¹

Q: And the “stability in aerobic solution” value [2]?
A: sufficiently stable in aerobic water solutions; also recorded: slightly sensitive towards oxygen

Q: For `CC#N.Cc1ccc(O)c(CN(CCN(Cc2ccccn2)Cc2ccccn2)Cc2ccccn2)c1.[Mn+2].[O-][Cl+3]([O-])([O-])[O-].[O-][Cl+3]([O-])([O-])[O-]` [Complex 2, reference compound], which “displacement of Mn(II) by Fe(II)” value ([3]; 0-60 min) is on record?
A: negligible displacement

Q: And the “Mn(II) displaced by Fe(II)” value ([3]; 15 h)?
A: approximately 11%

Q: What about the “DPPH reduction” value [4] of the same molecule?
A: fails to reduce DPPH to a noticeable degree

Q: For “cis-Dibromo(N,N′-bis(2,5-dihydroxybenzyl)-N,N′-bis(2-pyridinylmethyl)-1,2-ethanediamine)manganese(II) [Complex 3]”, which “percentage of free Mn(II)” value ([5]; pH 7.0) is on record?
A: 1.4%

Q: What about the “manganese bound by some form of the ligand” value ([5]; pH 7.4) of the same molecule?
A: Over 99%

Q: What about the “stability in aerobic solution” value [2] of the same molecule?
A: moderately stable in aerobic aqueous solutions above pH 7.0

Q: And the “error introduced by air oxidation” value ([2]; aerated MeOH, 4 h)?
A: < 5%

Q: What about the “decrease in intensity of 302 nm quinol feature” value ([2]; aerated MeOH, 12 h) of the same molecule?
A: about 10%
